Data published in patent US20120225097A1, “PIPERAZINECARBOXAMIDE DERIVATIVE USEFUL AS A MODULATOR OF FATTY ACID AMIDE HYDROLASE (FAAH)” (priority 2009, published 2012).
Structures can show the parent of a compound that is named as a salt.

Target: T1, rat FAAH (Rattus norvegicus, UniProt P97612)
T1 construct: expressed in transfected cells
T1 sequence (P97612 1-579): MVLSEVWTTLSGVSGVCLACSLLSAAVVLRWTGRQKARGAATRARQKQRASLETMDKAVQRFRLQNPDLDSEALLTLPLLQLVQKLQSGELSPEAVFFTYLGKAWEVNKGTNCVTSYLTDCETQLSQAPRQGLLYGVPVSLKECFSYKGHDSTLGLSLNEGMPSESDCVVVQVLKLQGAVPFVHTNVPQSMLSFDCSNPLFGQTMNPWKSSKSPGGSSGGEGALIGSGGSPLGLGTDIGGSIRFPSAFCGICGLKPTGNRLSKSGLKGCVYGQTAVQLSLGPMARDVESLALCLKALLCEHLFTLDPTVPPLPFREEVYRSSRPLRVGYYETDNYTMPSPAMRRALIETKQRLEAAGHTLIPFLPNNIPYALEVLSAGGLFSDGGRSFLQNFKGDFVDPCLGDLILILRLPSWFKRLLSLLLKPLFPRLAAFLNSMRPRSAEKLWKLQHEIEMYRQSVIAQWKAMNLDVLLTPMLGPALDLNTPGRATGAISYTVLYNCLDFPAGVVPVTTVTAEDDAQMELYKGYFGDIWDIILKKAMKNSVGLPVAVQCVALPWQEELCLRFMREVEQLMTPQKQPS
Test: Assay Method 2: FAAH assay, anandamide hydrolysis in cell homogenate
Assay type: biochemical
Details: for IC50: average value (standard error of the mean in parenthesis), 3H-AEA 80 nM, 1 h rt
Method: A. Transfection of Cells with Rat FAAH
A 10-cm tissue culture dish with a confluent monolayer of SK-N-MC cells was split 2 d prior to transfection. Using sterile technique, the media was removed and the cells were detached from the dish by the addition of trypsin. One fifth of the cells were then placed onto a new 10-cm dish. Cells were grown in a 37° C. incubator with 5% CO2 in Minimal Essential Media Eagle containing 10% Fetal Bovine Serum. After 2 d, cells were approximately 80% confluent. These cells were removed from the dish with trypsin and pelleted in a clinical centrifuge. The pellet was re-suspended in 400 μL complete media and transferred to an electroporation cuvette with a 0.4 cm gap between the electrodes. Supercoiled rat FAAH cDNA (1 μg), corresponding to NCBI accession NM_024132, was added to the cells and mixed. The voltage for the electroporation was set at 0.25 kV, and the capacitance was set at 960 μF. After electroporation, the cells were diluted into complete media (10 mL) and plated onto four 10-cm dishes. Because of the variability in the efficiency of electroporation, four different concentrations of cells were plated. The ratios used were 1:20, 1:10, and 1:5, with the remainder of the cells being added to the fourth dish. The cells were allowed to recover for 24 h before adding the selection media (complete media with 600 μg/mL G418). After 10 d, dishes were analyzed for surviving colonies of cells. Dishes with well-isolated colonies were used. Cells from individual colonies were isolated and tested.
T84 frozen cell pellets or transfected SK-N-MC cells (contents of 1×15 cm culture dishes) were homogenized in 50 mL of FAAH assay buffer (125 mM Tris, 1 mM EDTA, 0.2% Glycerol, 0.02% Triton X-100, 0.4 mM Hepes, pH 9). The assay mixture consisted of 50 μL of the cell homogenate, 10 μL of the test compound, and 40 μL of anandamide [1-^3H-ethanolamine] (^3H-AEA, Perkin-Elmer, 10.3 Ci/mmol), which was added last, for a final tracer concentration of 80 nM. The reaction mixture was incubated at rt for 1 h. During the incubation, 96-well Multiscreen filter plates (catalog #MAFCNOB50; Millipore, Bedford, Mass., USA) were loaded with 25 μL of activated charcoal (Multiscreen column loader, catalog #MACL09625, Millipore) and washed once with 100 μL of MeOH. Also during the incubation, 96-well DYNEX MicroLite plates (catalog #NL510410) were loaded with 100 μL of MicroScint40 (catalog #6013641, Packard Bioscience, Meriden, Conn., USA). After the 1 h incubation, 60 μL of the reaction mixture were transferred to the charcoal plates, which were then assembled on top of the DYNEX plates using Centrifuge Alignment Frames (catalog #MACF09604, Millipore). […]

SMILES	IC50 [nM]	times more potent in in vitro assays using rat FAAH enzyme (vs 4-chlorophenyl comparator) (relative to 4-({3-[(4-chlorophenyl)oxy]phenyl}methyl)-N-pyridin-3-ylpiperazine-1-carboxamide)
O=C(Nc1cccnc1)N1CCN(Cc2cccc(Oc3ccc(C(F)(F)F)cc3)c2)CC1 [Example 1, N-Pyridin-3-yl-4-{3-[4-(trifluoromethyl)phenoxy]benzyl}piperazine-1-carboxamide, bis-hydrochloride dihydrate]	18	about 3.5 times
O=C(Nc1cccnc1)N1CCN(Cc2cccc(Oc3ccc(Cl)cc3)c2)CC1 [4-({3-[(4-Chlorophenyl)oxy]phenyl}methyl)-N-pyridin-3-ylpiperazine-1-carboxamide]	65	–
O=C(Nc1cccnc1)N1CCN(Cc2cccc(Oc3ccc(Br)cc3)c2)CC1 [4-[3-(4-Bromophenoxy)benzyl]-N-pyridin-3-ylpiperazine-1-carboxamide]	22	–
